This is an account of results in publication PMC9541843, “N‐terminal alterations turn the gut hormone GLP‐2 into an antagonist with gradual loss of GLP‐2 receptor selectivity towards more GLP‐1 receptor interaction” (British Journal of Pharmacology, 2022).

Like-named read-outs stand apart in the source and are kept apart here. Peptide text beside a SMILES is read from it. * marks the point of attachment. C16 diacid = O=C(O)CCCCCCCCCCCCCCC(=O)*

Assay [1] addresses T1, human GLP‐2R (Homo sapiens, UniProt O95838).
T1 sequence (O95838 1-553): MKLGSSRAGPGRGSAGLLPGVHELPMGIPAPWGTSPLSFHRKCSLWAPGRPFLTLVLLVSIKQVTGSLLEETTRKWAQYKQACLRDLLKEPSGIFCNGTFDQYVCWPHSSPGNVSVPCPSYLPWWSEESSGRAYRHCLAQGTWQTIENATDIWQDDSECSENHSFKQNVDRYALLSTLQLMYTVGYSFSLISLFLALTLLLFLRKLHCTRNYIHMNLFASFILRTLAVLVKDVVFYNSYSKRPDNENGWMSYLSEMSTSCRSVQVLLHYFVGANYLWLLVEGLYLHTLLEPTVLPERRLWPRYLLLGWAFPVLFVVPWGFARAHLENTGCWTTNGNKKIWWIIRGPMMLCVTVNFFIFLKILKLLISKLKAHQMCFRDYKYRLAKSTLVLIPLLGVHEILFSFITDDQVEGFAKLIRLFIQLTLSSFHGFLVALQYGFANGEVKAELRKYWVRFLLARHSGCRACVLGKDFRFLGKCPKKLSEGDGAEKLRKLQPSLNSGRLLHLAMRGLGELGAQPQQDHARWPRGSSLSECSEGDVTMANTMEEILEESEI
Nature of the assay: cell-based. Conditions: SEM.
Method: After incubation, the cells were washed twice in 400 μl per well ice‐cold binding buffer and lysed using 500 μl per well of 200 mM NaOH with 1% SDS for 30 min. The samples were counted using the Wizard Gamma Counter (PerkinElmer, Waltham, MA).

The target of assay [2] is T1, human GLP‐2R. Nature of the assay: cAMP accumulation, agonism (HitHunter cAMP assay). As to conditions: for Emax: COS-7, read-out: cAMP activation Emax ± SEM. A general note: Changes in cAMP serve as a functional read-out for many G protein-coupled receptors.
In assay [3] the target is T1, human GLP‐2R. Nature of the assay: cAMP accumulation, inhibition of GLP‐2‐induced activation.
The target of assay [4] is T2, human GLP‐1R (Homo sapiens, UniProt P43220). Nature of the assay: cAMP accumulation, inhibition of GLP‐1‐mediated response (selectivity). Conditions: for inhibition at 1 µM: COS-7, read-out: Inhibition of GLP‐1‐mediated cAMP response at the human GLP‐1R.
Assay [5] addresses T1, human GLP‐2R. In words: Schild plot analysis of cAMP activation curve of GLP‐2. It counts as cell-based. Set-up: host or cells: COS-7 (transient, calcium phosphate). Conditions: COS‐7 cells, n = 5 in duplicate, read-out: Ki from Schild plot (pA2) (converted). Here is the method:
Statistical significance was accepted at P < 0.05.
We used a Schild plot approach, where we examined their ability to right‐shift the cAMP activation curve of native GLP‐2 (Figure 4a–d). For GLP‐2(2‐33), GLP‐(3‐33) and GLP‐2(4‐33), all having intrinsic activity, the Schild plot analysis was based on an equieffective DR (the concentrations at 60% of Emax). For GLP‐2(3‐33)[D3A], with no intrinsic activity, the Schild plot analysis was conducted based on the shift in the EC50 values for GLP‐2 with and without GLP‐2(3‐33)[D3A] as previously described (Sparre‐Ulrich et al., [2017]).

For assay [6], the target named is T2, human GLP‐1R. Nature of the assay: cAMP accumulation, agonism (selectivity).

T2 sequence (P43220 24-463): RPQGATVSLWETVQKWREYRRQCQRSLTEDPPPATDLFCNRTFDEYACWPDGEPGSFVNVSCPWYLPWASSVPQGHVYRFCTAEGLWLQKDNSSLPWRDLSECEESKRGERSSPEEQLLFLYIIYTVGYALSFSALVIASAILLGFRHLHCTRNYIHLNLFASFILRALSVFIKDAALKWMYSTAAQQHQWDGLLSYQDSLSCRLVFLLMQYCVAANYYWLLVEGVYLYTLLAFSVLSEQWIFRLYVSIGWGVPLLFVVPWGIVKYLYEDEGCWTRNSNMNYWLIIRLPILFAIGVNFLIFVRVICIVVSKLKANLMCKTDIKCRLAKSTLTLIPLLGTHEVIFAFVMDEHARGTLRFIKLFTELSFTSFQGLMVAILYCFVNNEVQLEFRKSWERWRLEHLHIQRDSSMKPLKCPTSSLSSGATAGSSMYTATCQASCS

As to `CC[C@H](C)[C@H](NC(=O)[C@H](Cc1ccccc1)NC(=O)[C@H](CC(=O)O)NC(=O)[C@H](CCCNC(=N)N)NC(=O)[C@H](C)NC(=O)[C@H](C)NC(=O)[C@H](CC(C)C)NC(=O)[C@H](CC(N)=O)NC(=O)[C@H](CC(=O)O)NC(=O)[C@H](CC(C)C)NC(=O)[C@@H](NC(=O)[C@@H](NC(=O)[C@H](CC(N)=O)NC(=O)[C@H](CCSC)NC(=O)[C@H](CCC(=O)O)NC(=O)[C@H](CC(=O)O)NC(=O)[C@H](CO)NC(=O)[C@H](Cc1ccccc1)NC(=O)[C@H](CO)NC(=O)CNC(=O)[C@H](CC(=O)O)NC(=O)[C@H](C)N)[C@@H](C)O)[C@@H](C)CC)C(=O)N[C@@H](CC(N)=O)C(=O)N[C@@H](Cc1c[nH]c2ccccc12)C(=O)N[C@@H](CC(C)C)C(=O)N[C@H](C(=O)N[C@@H](CCC(N)=O)C(=O)N[C@H](C(=O)N[C@@H](CCCCN)C(=O)N[C@H](C(=O)N[C@H](C(=O)N[C@@H](CC(=O)O)C(=O)O)[C@@H](C)O)[C@@H](C)CC)[C@@H](C)O)[C@@H](C)CC` [GLP‐2(2‐33)] (H-ADGSFSDEMNTILDNLAARDFINWLIQTKITD-OH), in assay [1], the IC50 (in general, the concentration at which inhibition is half-maximal) was 7.94 nM. Also, in assay [2] (SEM), the Emax (as a rule, the size of the effect at its maximum, as opposed to the concentration needed) worked out at 20 ± 3.2% and the EC50 (as a rule, the concentration needed to bring the measured effect to its halfway point) was 7.94 nM. For the same compound, in assay [3], half-maximal inhibition (IC50) required 174 nM. For the same compound, the inhibition (as a rule, the drop in the measured response relative to a control, in per cent) at 1 µM in assay [4] was in the range of 30 to 38%. Moreover, in assay [5], the Ki (as a rule, the dissociation constant of the complex between target and ligand, obtained from inhibition or displacement) is 40 nM.

`CC[C@H](C)[C@H](NC(=O)[C@H](Cc1ccccc1)NC(=O)[C@H](CC(=O)O)NC(=O)[C@H](CCCNC(=N)N)NC(=O)[C@H](C)NC(=O)[C@H](C)NC(=O)[C@H](CC(C)C)NC(=O)[C@H](CC(N)=O)NC(=O)[C@H](CC(=O)O)NC(=O)[C@H](CC(C)C)NC(=O)[C@@H](NC(=O)[C@@H](NC(=O)[C@H](CC(N)=O)NC(=O)[C@H](CCSC)NC(=O)[C@H](CCC(=O)O)NC(=O)[C@H](CC(=O)O)NC(=O)[C@H](CO)NC(=O)[C@H](Cc1ccccc1)NC(=O)[C@H](CO)NC(=O)CNC(=O)[C@H](C)N)[C@@H](C)O)[C@@H](C)CC)C(=O)N[C@@H](CC(N)=O)C(=O)N[C@@H](Cc1c[nH]c2ccccc12)C(=O)N[C@@H](CC(C)C)C(=O)N[C@H](C(=O)N[C@@H](CCC(N)=O)C(=O)N[C@H](C(=O)N[C@@H](CCCCN)C(=O)N[C@H](C(=O)N[C@H](C(=O)N[C@@H](CC(=O)O)C(=O)O)[C@@H](C)O)[C@@H](C)CC)[C@@H](C)O)[C@@H](C)CC` [GLP‐2(3‐33)[D3A]] (H-AGSFSDEMNTILDNLAARDFINWLIQTKITD-OH) registered a half-maximal inhibitory concentration (IC50) in assay [3] of 162 nM. Moreover, in assay [5], the Ki is 40 nM.

As to `CC[C@H](C)[C@H](NC(=O)[C@H](Cc1ccccc1)NC(=O)[C@H](CC(=O)O)NC(=O)[C@H](CCCN=C(N)N)NC(=O)[C@H](C)NC(=O)[C@H](C)NC(=O)[C@H](CC(C)C)NC(=O)[C@H](CC(N)=O)NC(=O)[C@H](CC(=O)O)NC(=O)[C@H](CC(C)C)NC(=O)[C@@H](NC(=O)[C@@H](NC(=O)[C@H](CC(N)=O)NC(=O)[C@H](CCSC)NC(=O)[C@H](CCC(=O)O)NC(=O)[C@H](CC(=O)O)NC(=O)[C@H](CO)NC(=O)[C@H](Cc1ccccc1)NC(=O)[C@H](CO)NC(=O)CNC(=O)[C@@H](N)CC(=O)O)[C@@H](C)O)[C@@H](C)CC)C(=O)N[C@@H](CC(N)=O)C(=O)N[C@@H](Cc1c[nH]c2ccccc12)C(=O)N[C@@H](CC(C)C)C(=O)N[C@H](C(=O)N[C@@H](CCC(N)=O)C(=O)N[C@H](C(=O)N[C@@H](CCCCN)C(=O)N[C@H](C(=O)N[C@H](C(=O)N[C@@H](CC(=O)O)C(=O)O)[C@@H](C)O)[C@@H](C)CC)[C@@H](C)O)[C@@H](C)CC` [GLP‐2(3‐33)] (H-DGSFSDEMNTILDNLAARDFINWLIQTKITD-OH), the IC50 in assay [1] was 7.94 nM; in assay [3], 204 nM. The same compound had an EC50 in assay [2] (SEM) of 25.1 nM. Further, the Ki in assay [5] is 126 nM.

Turning to `CC[C@H](C)[C@H](NC(=O)[C@H](Cc1ccccc1)NC(=O)[C@H](CC(=O)O)NC(=O)[C@H](CCCNC(=N)N)NC(=O)[C@H](C)NC(=O)[C@H](C)NC(=O)[C@H](CC(C)C)NC(=O)[C@H](CC(N)=O)NC(=O)[C@H](CC(=O)O)NC(=O)[C@H](CC(C)C)NC(=O)[C@@H](NC(=O)[C@@H](NC(=O)[C@H](CC(N)=O)NC(=O)[C@H](CCSC)NC(=O)[C@H](CCC(=O)O)NC(=O)[C@H](CC(=O)O)NC(=O)[C@H](CO)NC(=O)[C@H](Cc1ccccc1)NC(=O)[C@H](CO)NC(=O)CNC(=O)CCCCCCCCCCCCCCC(=O)O)[C@@H](C)O)[C@@H](C)CC)C(=O)N[C@@H](CC(N)=O)C(=O)N[C@@H](Cc1c[nH]c2ccccc12)C(=O)N[C@@H](CC(C)C)C(=O)N[C@H](C(=O)N[C@@H](CCC(N)=O)C(=O)N[C@H](C(=O)N[C@@H](CCCCN)C(=O)N[C@H](C(=O)N[C@H](C(=O)N[C@@H](CC(=O)O)C(=O)O)[C@@H](C)O)[C@@H](C)CC)[C@@H](C)O)[C@@H](C)CC` [GLP‐2(4‐33)(C16‐diacid/4)] ({C16 diacid}-GSFSDEMNTILDNLAARDFINWLIQTKITD-OH), the IC50 in assay [3] was determined as 11.7 nM. Besides, the “Inhibition of GLP‐2‐induced cAMP at the human GLP‐2R” value in assay [3] (at 1 μM peptide (highest tested concentration), COS‐7 cells) worked out at 95%. In assay [4], the IC50 came out at 79 nM and the inhibition at 1 µM was 41%. This compound came in with an EC50 in assay [6] of 2.5 nM. For the same compound, in assay [6] (COS‐7 cells, human GLP‐1R, cAMP, 1 μM stimulation, n = 3 in duplicate), the “Efficacy of GLP‐1R activation” value is reported as 16%.

For `CC[C@H](C)[C@H](NC(=O)[C@H](Cc1ccccc1)NC(=O)[C@H](CC(=O)O)NC(=O)[C@H](CCCNC(=N)N)NC(=O)[C@H](C)NC(=O)[C@H](C)NC(=O)[C@H](CC(C)C)NC(=O)[C@H](CC(N)=O)NC(=O)[C@H](CC(=O)O)NC(=O)[C@H](CC(C)C)NC(=O)[C@@H](NC(=O)[C@@H](NC(=O)[C@H](CC(N)=O)NC(=O)[C@H](CCSC)NC(=O)[C@H](CCC(=O)O)NC(=O)[C@H](CC(=O)O)NC(=O)[C@H](CO)NC(=O)[C@H](Cc1ccccc1)NC(=O)[C@H](CO)NC(=O)CN)[C@@H](C)O)[C@@H](C)CC)C(=O)N[C@@H](CC(N)=O)C(=O)N[C@@H](Cc1c[nH]c2ccccc12)C(=O)N[C@@H](CC(C)C)C(=O)N[C@H](C(=O)N[C@@H](CCC(N)=O)C(=O)N[C@H](C(=O)N[C@@H](CCCCN)C(=O)N[C@H](C(=O)N[C@H](C(=O)N[C@@H](CC(=O)O)C(=O)O)[C@@H](C)O)[C@@H](C)CC)[C@@H](C)O)[C@@H](C)CC` [GLP‐2(4‐33)] (H-GSFSDEMNTILDNLAARDFINWLIQTKITD-OH), the 50% inhibitory concentration (IC50) in assay [1] was 6.31 nM; in assay [3] (SEM) it was 79.4 nM. In assay [2], this compound gave an EC50 of 158 nM. In assay [2] (SEM), the Emax was 17 ± 2.6%. Also, the Ki in assay [5] is 6.3 nM.
